Test results published in patent US20250049776A1, “AUTOPHAGY INDUCING COMPOUNDS AND USES THEREOF, IN PARTICULAR FOR A SYSTEMIC TREATMENT OF DISEASES AND CONDITIONS” (Samsara Therapeutics Inc., priority 2021, published 2025).
Structures can show the parent of a compound that is named as a salt.

Assays:
[1] = system: Human osteosarcoma U20S cells; assay: Assay to measure lysosome and autolysosome formation (acidic vesicle formation, LysoView/LysoTracker staining); format: cell-based; conditions: Homo sapiens; U2OS cells, concentration of 0.8 μM; read-out: Activity (percentage increase in acidic vesicle formation over the DMSO-treated control), Table 2
Method in brief: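 U2OS cells treated with compounds in DMSO for 24 h, then stained 45 min at 37 °C with 1× LysoView 633 or 50 nM LysoTracker Deep Red, with Hoechst nuclear counterstain. Live-cell fluorescence imaging at 37 °C; acidic vesicle formation judged against DMSO-treated control.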

[2] = system: U2OS cell line stabling expressing RFP-eGFP-hLC3b; assay: Tandem reporter assay (autophagic flux, RFP-only puncta); format: cell-based; conditions: Homo sapiens, RFP-only puncta as percentage of DMSO-treated control, 24 hours; for activity at 1 µM: read-out: Autolysosome % DMSO activity (compound concentration of 1 μM); for activity at 10 µM: read-out: Autolysosome % DMSO activity (compound concentration of 10 μM)
Experimental: Selected compounds of this invention were also assessed for their ability to stimulate autophagy using a U20S cell line stabling expressing RFP-eGFP-hLC3b (a tandem reporter cell line). During the process of autophagy, the cargo to be degraded is first enveloped by organelles called autophagosomes. These autophagosomes then fuse with lysosomes, causing them to become acidified and their digestive enzymes to become activated. The term “autophagic flux” is used to represent the dynamic process of autophagy: autophagic flux refers to the whole process of autophagy, including autophagosome formation, maturation, fusion with lysosomes, subsequent breakdown and the release of macromolecules back into the cytosol (Zhang X J, Chen S, Huang K X, Le W D. Why should autophagic flux be assessed? Acta Pharmacol Sin. 2013 May; 34(5): 595-9. doi: 10.1038/aps.2012.184. Epub 2013 Mar. 11). Compounds that stimulate autophagic flux stimulate the dynamic process of autophagy (the whole process of autophagy).
LC3b is a protein found in the membrane of autophagosomes which has been used to generate genetic reporters of autophagy in cells. In these systems a tandem fusion of LC3b is engineered with two fluorescent proteins of different wavelengths: one which is acid sensitive (for example eGFP, which fluoresces green) and the other which is acid insensitive (for example RFP, which fluoresces red). Cells expressing RFP-eGFP-hLC3b can be examined using fluorescent microscopy: the autophagosomes present will fluoresce in both channels (either yellow in an overlay of both channels or puncta that are present in both the individual red and green channels) but the autolysosomes present will fluoresce in the RFP (red) channel only. Using a fluorescent microscope, the number of autophagosomes and autolysosomes can be counted, allowing for the monitoring of both the induction of autophagy (total puncta count) and the rate of autophagic flux (ratio of red-only to red-and-green puncta). The influence of small molecules on autophagy induction and flux can be assessed using this system by comparison to a non-treated control.
Representative Procedure: Human osteosarcoma U2OS cells stably expressing RFP-eGFP-hLC3b were seeded (10,000 cells/well) into a 96-well glass-bottom plate (Cell Carrier Ultra, Perkin Elmer) in DMEM Glutamax media (Gibco) supplemented with 10% Fetal Bovine Serum (FBS) and antibiotics (100 u/ml penicillin, 100 μg/ml streptomycin, Invitrogen), then incubated overnight in a humified atmosphere at 37° C. and 5% CO2. The cells were then treated with the compounds of interest, dissolved in DMSO, in a duplicated 5- or 10-point dose-response. 8 wells were treated with an equivalent volume of DMSO, 4 with 0.3 μM torin-1 as a positive control (MCE) and 4 wells with 0.4 μM torin-1 plus 0.2 μM bafilomycin (MCE) as a control for flux inhibition. The cells were returned to the incubator and the treatment continued for 24 hours. After treatment, the media was aspirated off and the cells fixed with a solution of 4% formaldehyde+1% glutaraldehyde (Sigma) in dPBS (plus magnesium and calcium, Gibco).
Fixation was allowed to proceed for 15 minutes at room temperature then the fixative solution discarded and replaced with PBS (Gibco) plus Hoescht 33342 ([…], Sigma). After 30 minutes the plates were imaged on an Opera Phenix confocal microscope (Perkin-Elmer) using a 40× water objective, collecting using DAPI, mCherry and GFP channels. Cells were detected based upon the staining of their nuclei with DAPI using the Harmony image analysis software (Perkin-Elmer) and the number of autophagosomes (GFP and RFP puncta) and autolysosomes (RFP only puncta) per cell were counted using the spot picking function within the software.

SMILES | activation at 0.8 µM [1] | activity at 1 µM [2] | activity at 10 µM [2]
CC(C)N(C(=O)c1csc(-c2cnn(-c3ccccc3)c2)n1)C1CCNCC1 [Compound 163, N-isopropyl-2-(1-phenyl-1H-pyrazol-4-yl)-N-(piperidin-4-yl)thiazole-4-carboxamide hydrochloride] | 10 to 30% | 144% | 187%
CCCN(C(=O)c1csc(-c2cnn(-c3ccccc3)c2)n1)[C@@H]1CCNC1 [Compound 171, (R)-2-(1-phenyl-1H-pyrazol-4-yl)-N-propyl-N-(pyrrolidin-3-yl)thiazole-4-carboxamide hydrochloride] | 10 to 30% | 200% | 294%
